Results reported in ChEMBL document CHEMBL3301361, “Experimental in vitro DMPK and physicochemical data on a set of publicly disclosed compounds”.
≈ marks a conversion by molar mass, not a printed value.

Tests used:
in vitro [1] = conditions: human, plasma
in vitro [2] = conditions: SD, HW or BN, rat, plasma
physchem [3] = conditions: octan-1-ol/water
in vitro [4] = conditions: human
physchem [5] = conditions: pH 7.4 buffer
in vitro [6] = conditions: hepatocytes

SMILES | fraction unbound at 5 h (in vitro [1]; PPB) | fraction unbound at 5 h (in vitro [2]) | logD (physchem [3]; pH 7.4, LogD7.4) | further results
CC1(C)CNC(=O)c2sc(N3CCOCC3)nc2C1 | 0.701 | 0.517 | 1.29 | solubility thermodynamic (physchem [5]): 251 µM (≈ 70.7 µg/mL)
NC(=O)c1cc(C(N)=O)n(-c2cccc(-c3cc(C(F)(F)F)ccc3C(F)(F)F)c2)n1 | 0.0328 | 0.0568 | 3.4 | 
CCN(CC)S(=O)(=O)c1ccc(-c2cc(C(F)(F)F)ccc2OCC(=O)O)cc1 | 0.0122 | 0.0179 | 0.67 | 
COC[C@@H](O)Cn1c(=O)cnn(-c2ccc(Cl)c(C(=O)NCC3(O)CCCCCC3)c2)c1=O | 0.586 | 0.608 | 1.44 | 
CC(C)(C)OC(=O)NC[C@H]1CC[C@H](CNC(=O)c2cc(-c3ccccc3)nc3ccccc23)CC1 | 0.0008 | 0.005 |  | 
Cc1nn(-c2ccccc2)c(NS(=O)(=O)C2CCCCC2)c1C(=O)N[C@@H](C)C(C)(C)C | 0.0149 | 0.0163 | 1.75 | solubility thermodynamic (physchem [5]): 398 µM (≈ 178 µg/mL)
Cc1c(Sc2ccc(Cl)cc2)c2c(-c3cnccn3)cccc2n1CC(=O)O | 0.0124 | 0.024 | 0.03 | microsomal CLint (in vitro [4]; microsomes): 8 µL/min/mg
Cc1ccc(S(=O)(=O)Nc2c(C(=O)N[C@@H](C)C(C)(C)C)c(C)nn2C2CCC2)cc1 | 0.0183 | 0.0209 | 1.57 | microsomal CLint (in vitro [4]; microsomes): 11 µL/min/mg
CN(C(=O)Cc1ccc(-n2cnnn2)cc1)C1CCN(Cc2ccc(C(F)(F)F)cc2)CC1 | 0.0872 | 0.0606 |  | solubility thermodynamic (physchem [5]): 17.8 µM (≈ 8.16 µg/mL)
COc1ccccc1CN(C(C)=O)c1cnccc1Oc1ccccc1 | 0.069 | 0.101 | 3 | 
COc1ncc(-c2c(C)ccc(F)c2CCNC(=O)c2ccc(OCC(F)(F)F)nc2)cn1 | 0.002 | 0.0437 |  | 
O=C(NCc1ccc(OC(F)(F)F)cc1)C1c2ccccc2C(=O)N1C1CCOCC1 (centres undefined) | 0.0948 | 0.132 |  | solubility thermodynamic (physchem [5]): 83.2 µM (≈ 36.1 µg/mL)
COc1ccccc1O[C@@H](c1ccccc1)[C@@H]1CNCCO1 | 0.309 | 0.768 | 0.9 | 
O=c1c2ccccc2[nH]n1Cc1c[nH]c2ccccc12 |  |  |  | hepatocyte CLint (in vitro [6]): 4.37 µL/min/1e6 cells
CC(C)Oc1cc(Nc2nc(N[C@@H](C)c3ccc(F)cn3)nc(OC(CO)CO)c2Cl)n[nH]1 | 0.176 | 0.173 | 2.77 | 
Cc1ccccc1CN1CCC(N2CCC(n3c(=O)[nH]c4ccccc43)CC2)CC1 |  | 0.299 |  | fraction unbound at 5 h (in vitro [1]): 0.355; logD (physchem [3]; pH 7.4): 2.68
Cc1cc(Oc2ncc(C(F)(F)F)cc2Cl)ccc1CC1SC(=O)NC1=O (centres undefined) | 0.0006 | 0.0021 |  | 

Further lines, with some results ahead:

fraction unbound at 5 h (in vitro [1]; PPB) | fraction unbound at 5 h (in vitro [2]) | logD (physchem [3]; pH 7.4, LogD7.4) | SMILES | further results
0.46 | 0.344 | 1.3 | N#C[C@@]1(NC(=O)[C@@H](N)Cc2cccs2)C[C@@H]1c1ccccc1 | 
 | 0.0122 |  | Oc1nc2c(O)ccc(CCNCCCSCCOCCc3cccc4ccccc34)c2s1 | microsomal CLint (in vitro [4]; liver microsomes): 36 µL/min/mg
0.002 | 0.007 |  | Cc1cc(I)cc2c1NC(C(=O)O)C1CC=CC21 (centres undefined) | 
0.0251 | 0.0391 | 0.74 | O=C(NCCc1ccccc1)c1cc(-n2ncc(=O)[nH]c2=O)ccc1Cl | microsomal CLint (in vitro [4]; liver microsomes): < 3 µL/min/mg
0.0163 | 0.0477 | 0.95 | CCn1nc(C)c(C(=O)N[C@@H](C)C(C)(C)C)c1NS(=O)(=O)c1ccc(C)cc1 | 
0.483 | 0.511 | 0.3 | COc1cc(C)c(S(=O)(=O)N(C)CCOCC(=O)N2CCC(C3CCN(C)CC3)CC2)c(C)c1 | 
0.129 | 0.0556 | 2.7 | Cc1nc(C)c(-c2ccc([C@H]3CC[C@H](CC(N)=O)CC3)cc2)nc1C(N)=O | 
0.0633 | 0.0928 | 2.75 | C[C@@H]1CN(c2ccc3c(n2)NC(=O)CO3)[C@H](c2ccccc2)CO1 | 
0.11 | 0.0928 | 2.6 | Cc1ccc(Sc2ccccc2CN(C)C)c(N)c1 | 
0.003 | 0.003 |  | CC(C)N1C(=O)[C@H](NC(=O)[C@@H](Cc2ccccc2OC(F)(F)F)NC(=O)OC(C)(C)C)CCc2ccccc21 | solubility thermodynamic (physchem [5]): 5 µM (≈ 2.75 µg/mL)
0.54 | 0.701 | 1.2 | CCN1CCC[C@H]1CNC(=O)c1cc(Br)cc(OC)c1OC | 
0.0219 | 0.0268 | 3.6 | CN(C)C(=O)[C@H](O)[C@H](Cc1ccccc1)NC(=O)c1cc2cc(Cl)ccc2[nH]1 | solubility thermodynamic (physchem [5]): 22.9 µM (≈ 9.16 µg/mL)
0.681 | 0.608 | 0.91 | C[C@H]([C@H](O)c1ccc(O)cc1)N1CCC(O)(c2ccccc2)CC1 | 
